The conditions of data set [1]: amide bond.
For data set [2] the following is noted: amide bond, 15-membered ring, HATU/NMM, DMF, 25.0 °C, 12.0 h.
The conditions of data set [3]: from CNCc1cc(NC(=O)COCc2cccc(C(Nc3ccc4c(N(C(=O)OC(C)(C)C)C(=O)OC(C)(C)C)ncc(F)c4c3)C(=O)O)c2)ccc1S(=O)(=O)C1CC1; amide bond; 15-membered ring; BOP/DMAP/DIPEA; DCM/DMF; 20.7 mM; 25.0 °C; 13.0 h; 2 steps.
A further data set concerns the target T1, FVIIa (Homo sapiens, UniProt P08709).
T1 construct: with about 1% of the total amount in the proteolytically active form factor VIIa
Kind of data set: FVIIa-Xase Ki (37° C.). The class given is biochemical. The protocol:
The effectiveness of compounds of the present invention as inhibitors of the coagulation Factors, VIIa, IXa, Xa, XIa, XIIa, plasma kallikrein or thrombin, tissue kallikrein and activated protein C, can be determined using a relevant purified serine protease, respectively, and an appropriate synthetic substrate. The rate of hydrolysis of the chromogenic or fluorogenic substrate by the relevant serine protease was measured both in the absence and presence of compounds of the present invention. […] A decrease in the rate of absorbance or fluorescence change in the presence of inhibitor is indicative of enzyme inhibition. Such methods are known to one skilled in the art. The results of this assay are expressed as the inhibitory constant, Ki.
Reactions were initiated by the addition of human FX (range of concentrations). […] The residual FVIIa is sufficient, when combined with PCPS, calcium and TF to catalyze the conversion of FX to Xa, and was increased by the addition of 5 pM human FVIIa. FXa in turn hydrolyses S2765, which was monitored for 60 min at 405 nm. FXase activity was derived from the parabolic change in absorbance over time according to Equation 2: Absorbance=½ at 2+bt+c (Eq. 2) where a is proportional to the rate of FX activation≡product≡vs; b is proportional to the hydrolysis of S2765 in the absence of FXa; c is the absorbance at t=0. […]

Structures can show the parent of a compound that is named as a salt. Where two headings read alike, the source gives them in different places.

T1 sequence (P08709 213-466 limits assumed): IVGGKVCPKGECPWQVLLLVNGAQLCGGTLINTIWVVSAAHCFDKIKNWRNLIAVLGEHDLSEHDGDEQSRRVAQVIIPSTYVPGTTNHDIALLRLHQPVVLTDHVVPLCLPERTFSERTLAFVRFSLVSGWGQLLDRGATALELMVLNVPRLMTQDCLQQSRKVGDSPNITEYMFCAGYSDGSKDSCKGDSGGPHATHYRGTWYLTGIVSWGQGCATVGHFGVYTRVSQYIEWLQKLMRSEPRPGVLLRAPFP
T1 sequence (P08709 61-212 limits assumed): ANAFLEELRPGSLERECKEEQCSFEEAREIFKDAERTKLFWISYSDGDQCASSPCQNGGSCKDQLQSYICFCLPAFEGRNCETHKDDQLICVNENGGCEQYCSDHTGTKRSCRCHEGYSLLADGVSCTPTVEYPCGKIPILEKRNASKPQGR
T1 sequence (P13726 33-295 partner): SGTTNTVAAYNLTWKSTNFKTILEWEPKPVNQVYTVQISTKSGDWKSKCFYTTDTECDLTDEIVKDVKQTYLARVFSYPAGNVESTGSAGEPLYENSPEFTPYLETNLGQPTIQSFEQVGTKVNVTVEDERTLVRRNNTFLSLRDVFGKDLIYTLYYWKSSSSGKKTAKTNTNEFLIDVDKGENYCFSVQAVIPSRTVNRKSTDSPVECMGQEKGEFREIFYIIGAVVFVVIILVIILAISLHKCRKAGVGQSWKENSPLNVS

With `CCOC(=O)CC1NC(=O)[C@H](Nc2ccc(C#N)cc2)c2ccc(OCC(F)F)c(c2)CCC(=O)Nc2cccc1c2` (some centres unmarked), in data set [1] (14-membered ring, HATU), the ring closure, isolated yield is 21%.

`CN1CCc2cccc(c2)C(Nc2ccc3c(N(C(=O)OC(C)(C)C)C(=O)OC(C)(C)C)nccc3c2)C(=O)N(C)Cc2cc(ccc2S(=O)(=O)C2CC2)NC1=O` (centres unmarked) had a ring closure, yield after HPLC in data set [2] (from CNCc1cc(NC(=O)N(C)CCc2cccc(C(Nc3ccc4c(N(C(=O)OC(C)(C)C)C(=O)OC(C)(C)C)nccc4c3)C(=O)O)c2)ccc1S(=O)(=O)C1CC1) of 61%.

`CN1Cc2cc(cc(F)c2OC(CF)CF)NC(=O)CCc2cc(ccc2OCC(F)F)C(Nc2ccc(C#N)cc2)C1=O` (centres unmarked) gave a ring closure, isolated yield in data set [1] (from CNCc1cc(NC(=O)CCc2cc(C(Nc3ccc(C#N)cc3)C(=O)O)ccc2OCC(F)F)cc(F)c1OC(CF)CF, 14-membered ring, BOP) of 44%.

Consider `CN1Cc2cc(cc(F)c2OC(F)F)NC(=O)CCc2cccc(c2)C(Nc2ccc(C#N)cc2)C1=O` (centres unmarked), for which the ring closure, isolated yield in data set [1] (from CN(Cc1cc(N)cc(F)c1OC(F)F)C(=O)C(Nc1ccc(C#N)cc1)c1cccc(CCC(=O)O)c1, 14-membered ring, BOP/DMAP/DIPEA, DCM/DMF, 4.8 mM, 40.0 °C, 21.0 h) came to 80%.

`CN1Cc2cc(cc(F)c2OCC(F)F)NC(=O)CCc2cc(ccc2OCC(F)F)C(Nc2ccc(C#N)cc2)C1=O` (centres unmarked) gave a ring closure, isolated yield in data set [1] (from CNCc1cc(NC(=O)CCc2cc(C(Nc3ccc(C#N)cc3)C(=O)O)ccc2OCC(F)F)cc(F)c1OCC(F)F, 14-membered ring, BOP) of 62%.

On to `CN1Cc2cc(ccc2S(=O)(=O)C(F)(F)F)NC(=O)CCc2cc(ccc2OCC(F)F)C(Nc2ccc3c(N(C(=O)OC(C)(C)C)C(=O)OC(C)(C)C)ncc(F)c3c2)C1=O` (centres unmarked), for which the ring closure, isolated yield in data set [1] (from CNCc1cc(NC(=O)CCc2cc(C(Nc3ccc4c(N(C(=O)OC(C)(C)C)C(=O)OC(C)(C)C)ncc(F)c4c3)C(=O)O)ccc2OCC(F)F)ccc1S(=O)(=O)C(F)(F)F, 14-membered ring, BOP) turned out to be 45%.

`CN1Cc2cc(ccc2S(=O)(=O)C2CC2)NC(=O)CCc2cc(ccc2C2CC2)C(Nc2ccc3c(N(C(=O)OC(C)(C)C)C(=O)OC(C)(C)C)ncc(F)c3c2)C1=O` (centres unmarked) had a ring closure, isolated yield in data set [1] (from CNCc1cc(NC(=O)CCc2cc(C(Nc3ccc4c(N(C(=O)OC(C)(C)C)C(=O)OC(C)(C)C)ncc(F)c4c3)C(=O)O)ccc2C2CC2)ccc1S(=O)(=O)C1CC1, 14-membered ring, BOP) of 82%.

For the molecule `CN1Cc2cc(ccc2S(=O)(=O)C2CC2)NC(=O)CCc2cc(ccc2F)C(Nc2ccc3c(N(C(=O)OC(C)(C)C)C(=O)OC(C)(C)C)ncc(F)c3c2)C1=O` (centres unmarked), in data set [1] (from CNCc1cc(NC(=O)CCc2cc(C(Nc3ccc4c(N(C(=O)OC(C)(C)C)C(=O)OC(C)(C)C)ncc(F)c4c3)C(=O)O)ccc2F)ccc1S(=O)(=O)C1CC1, 14-membered ring, BOP/DMAP/DIPEA, DCM/DMF, 25.0 °C, 12.0 h), the ring closure, isolated yield amounted to 30%.

Turning to `CN1Cc2cc(ccc2S(=O)(=O)C2CC2)NC(=O)CCc2cccc(c2)C(Nc2ccc3c(N(C(=O)OC(C)(C)C)C(=O)OC(C)(C)C)ncc(F)c3c2)C1=O` (centres unmarked), the ring closure, isolated yield in data set [1] (from CNCc1cc(NC(=O)CCc2cccc(C(Nc3ccc4c(N(C(=O)OC(C)(C)C)C(=O)OC(C)(C)C)ncc(F)c4c3)C(=O)O)c2)ccc1S(=O)(=O)C1CC1, 14-membered ring, BOP/DMAP/DIPEA, DCM/DMF, 25.0 °C) was 41%.

In data set [1] (from CNCc1cc(NC(=O)CCc2cccc(C(Nc3ccc4c(N(C(=O)OC(C)(C)C)C(=O)OC(C)(C)C)nccc4c3)C(=O)O)c2)ccc1S(=O)(=O)C1CC1, 14-membered ring, BOP/DMAP/DIPEA, DCM/DMF, 23.3 mM, 25.0 °C, 12.0 h), `CN1Cc2cc(ccc2S(=O)(=O)C2CC2)NC(=O)CCc2cccc(c2)C(Nc2ccc3c(N(C(=O)OC(C)(C)C)C(=O)OC(C)(C)C)nccc3c2)C1=O` (centres unmarked) gave a ring closure, isolated yield of 50%.

On to `CN1Cc2cc(ccc2S(=O)(=O)C2CC2)NC(=O)COCc2cccc(c2)C(Nc2ccc3c(N(C(=O)OC(C)(C)C)C(=O)OC(C)(C)C)ncc(F)c3c2)C1=O` (centres unmarked), for which the ring closure, crude yield in data set [3] is 48%.

In data set [1] (from CNCc1cc(NC(=O)CCc2cc(C(Nc3ccc4c(N(C(=O)OC(C)(C)C)C(=O)OC(C)(C)C)ncc(F)c4c3)C(=O)O)cc(F)c2OC)ccc1S(=O)(=O)C1CC1, 14-membered ring, BOP/DMAP/DIPEA, DCM/DMF, 25.0 °C), `COc1c(F)cc2cc1CCC(=O)Nc1ccc(S(=O)(=O)C3CC3)c(c1)CN(C)C(=O)C2Nc1ccc2c(N(C(=O)OC(C)(C)C)C(=O)OC(C)(C)C)ncc(F)c2c1` (centres unmarked) registered a ring closure, isolated yield of 18%.

`COc1cc2cc(c1)C(Nc1ccc3c(N(C(=O)OC(C)(C)C)C(=O)OC(C)(C)C)ncc(F)c3c1)C(=O)N(C)Cc1cc(ccc1S(=O)(=O)C1CC1)NC(=O)CC2` (centres unmarked) had a ring closure, isolated yield in data set [1] (from CNCc1cc(NC(=O)CCc2cc(OC)cc(C(Nc3ccc4c(N(C(=O)OC(C)(C)C)C(=O)OC(C)(C)C)ncc(F)c4c3)C(=O)O)c2)ccc1S(=O)(=O)C1CC1, 14-membered ring, BOP/DMAP/DIPEA, DCM/DMF, 25.0 °C, 12.0 h) of 69%.

In the case of `COc1ccc2cc1COCC(=O)Nc1ccc(S(=O)(=O)C3CC3)c(c1)CN(C)C(=O)C2Nc1ccc2c(N(C(=O)OC(C)(C)C)C(=O)OC(C)(C)C)nccc2c1` (centres unmarked), in data set [1] (from CNCc1cc(NC(=O)COCc2cc(C(Nc3ccc4c(N(C(=O)OC(C)(C)C)C(=O)OC(C)(C)C)nccc4c3)C(=O)O)ccc2OC)ccc1S(=O)(=O)C1CC1, 15-membered ring, BOP/DMAP/DIPEA, DCM/DMF, 25.0 °C, 12.0 h), the ring closure, isolated yield is 54%.

Consider `COc1ccc2cc1[C@H](C)CN(C)C(=O)Nc1ccc(S(=O)(=O)C3CC3)c(c1)CN(C)C(=O)C2Nc1ccc2c(N(C(=O)OC(C)(C)C)C(=O)OC(C)(C)C)nccc2c1` (some centres unmarked), for which, in data set [2] (from CNCc1cc(NC(=O)N(C)C[C@@H](C)c2cc(C(Nc3ccc4c(N(C(=O)OC(C)(C)C)C(=O)OC(C)(C)C)nccc4c3)C(=O)O)ccc2OC)ccc1S(=O)(=O)C1CC1, 1.11 mM), the ring closure, yield after HPLC turned out to be 11%.

For the molecule `C[C@@H]1CC(=O)Nc2ccc(OC(F)F)c(c2)CN(C)C(=O)C(Nc2ccc(C#N)cc2)c2ccc(OCc3ccccc3)c1c2` (some centres unmarked), the ring closure, isolated yield in data set [1] (from CNCc1cc(NC(=O)C[C@@H](C)c2cc(C(Nc3ccc(C#N)cc3)C(=O)O)ccc2OCc2ccccc2)ccc1OC(F)F, 14-membered ring, BOP) was found to be 64%.

With `C[C@@H]1CC(=O)Nc2ccc(S(=O)(=O)C3CC3)c(c2)CN(C)C(=O)C(Nc2ccc3c(N(C(=O)OC(C)(C)C)C(=O)OC(C)(C)C)ncc(F)c3c2)c2ccc(OCc3ccccc3)c1c2` (some centres unmarked), the ring closure, isolated yield in data set [1] (from CNCc1cc(NC(=O)C[C@@H](C)c2cc(C(Nc3ccc4c(N(C(=O)OC(C)(C)C)C(=O)OC(C)(C)C)ncc(F)c4c3)C(=O)O)ccc2OCc2ccccc2)ccc1S(=O)(=O)C1CC1, 14-membered ring, BOP) is 19%.

As to `C[C@H]1CC(=O)Nc2ccc(S(=O)(=O)C3CC3)c(c2)CN(C)C(=O)C(Nc2ccc3c(N(C(=O)OC(C)(C)C)C(=O)OC(C)(C)C)ncc(F)c3c2)c2ccc(OCc3ccccc3)c1c2` (some centres unmarked), the ring closure, isolated yield in data set [1] (from CNCc1cc(NC(=O)C[C@H](C)c2cc(C(Nc3ccc4c(N(C(=O)OC(C)(C)C)C(=O)OC(C)(C)C)ncc(F)c4c3)C(=O)O)ccc2OCc2ccccc2)ccc1S(=O)(=O)C1CC1, 14-membered ring, BOP/DMAP/DIPEA, DCM/DMF, 25.0 °C) amounted to 24%.

In turn, `CN1Cc2cc(ccc2S(=O)(=O)C2CC2)NC(=O)CCc2cc(ccc2O)[C@@H](Nc2ccc3c(N)ncc(F)c3c2)C1=O` (single isomer, unassigned) [Example 16] yielded a Ki on FVIIa of 92 nM. In other words, the double-digit nanomolar range.

On to `CN1CCc2cccc(c2)C(Nc2ccc3c(N)nccc3c2)C(=O)N(C)Cc2cc(ccc2S(=O)(=O)C2CC2)NC1=O` (centres unmarked) [Example 13, trifluoroacetic acid salt], for which the Ki on FVIIa was found to be 6 nM. Compared with the last molecule, the Ki is about 15-fold lower.

Values taken from patent US9657006B2, “Macrocyclic factor VIIa inhibitors” (BRISTOL-MYERS SQUIBB COMPANY, priority 2013, dated 2017).
